# Measurements published in PMC8162404, “Proteomimetic surface fragments distinguish targets by function” (Chemical Science, 2020).
# pKd: −log10 of the molar value.
# Experiments:
# S100A4 [1] = molecular target: T1, S100A4 (Homo sapiens, UniProt P26447); experiment: Competition pull-down with native ligand NMIIA (1893–1923); type: binding; settings: H14 library; competitor peptide 200 µM; read-out: Surface mapping KD (apparent), competition
# T1 construct: made in house; host or cells: Escherichia coli BL21(DE3)
# T1 sequence (P26447 whole entry): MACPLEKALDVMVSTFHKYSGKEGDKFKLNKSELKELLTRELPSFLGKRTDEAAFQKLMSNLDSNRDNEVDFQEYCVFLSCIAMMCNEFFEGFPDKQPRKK
# S100B [2] = molecular target: T2, S100B (Homo sapiens, UniProt P04271); experiment: Competition pull-down with native ligand RSK1 (689–735); type: binding; settings: H14 library; competitor peptide 200 µM; read-out: Surface mapping KD (apparent), competition
# T2 construct: made in house; host or cells: Escherichia coli BL21(DE3)
# T2 sequence (P04271 1-92): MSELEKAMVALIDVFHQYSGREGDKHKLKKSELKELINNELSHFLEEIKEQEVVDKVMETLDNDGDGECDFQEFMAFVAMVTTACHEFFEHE
# RecQ-WH [3] = molecular target: T3, RecQ-WH (Escherichia coli, UniProt P15043); experiment: Competition pull-down with native ligand SSB-Ct8; type: binding, E. coli; settings: H14 library; competitor peptide 200 µM; read-out: Surface mapping KD (apparent), competition
# T3 construct: coding for residues 408– 523 of E. coli RecQ; made in house; host or cells: E. coli BL21(DE3)
# T3 sequence (P15043 408-523): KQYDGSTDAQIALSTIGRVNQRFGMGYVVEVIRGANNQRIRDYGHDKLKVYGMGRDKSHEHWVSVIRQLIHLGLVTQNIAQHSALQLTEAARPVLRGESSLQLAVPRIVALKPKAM
# RecQ-WH [4] = molecular target: T3, RecQ-WH; experiment: Pull-down assay with immobilized protein and LSM libraries; set-up: species or system E. coli; settings: H14 library; 1:1 binding assumed; read-out: Surface mapping KD (apparent)
# In short: (§1)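 His-tagged protein immobilized on Co-NTA resin (64 µM) in 20 mM HEPES pH 7.4, 150 mM NaCl, equilibrated 30 min at room temperature with foldamer LSM sublibraries at equimolar total concentration. Unbound fractions quantified by HPLC-MS versus protein-free resin control; apparent KD assumes 1:1 binding.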
# CaM [5] = molecular target: T4, CaM (Bos taurus, UniProt P62157); experiment: Competition pull-down with native ligand TRPV1-Ct15; type: binding, bovine; settings: H14 library; competitor peptide 200 µM; read-out: Surface mapping KD (apparent), competition
# T4 construct: made in house; host or cells: E. coli BL21 (DE3)
# Gal-1 [6] = molecular target: T5, Gal-1 (Homo sapiens, UniProt P09382); experiment: Competition pull-down with lactose; type: binding; settings: H14 library; lactose 10 mM; read-out: Surface mapping KD (apparent), competition
# T5 construct: made in house; host or cells: E. coli BL21(DE3)
# T5 sequence (P09382 whole entry): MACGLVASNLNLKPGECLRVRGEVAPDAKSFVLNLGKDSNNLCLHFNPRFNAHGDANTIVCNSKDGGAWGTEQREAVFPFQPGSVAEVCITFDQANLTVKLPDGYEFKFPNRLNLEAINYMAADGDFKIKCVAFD
# In short: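 His6-tagged proteins immobilized on Co-NTA resin at 64 µM final with 64-member LSM foldamer sublibraries (1 M each, as printed) in pH 7.4 HEPES/NaCl buffers (Ca2+/TCEP per target), 30 min RT; competitor peptides 200 µM final, lactose 10 mM for Gal-1. Bound fractions from LC-MS loss vs protein-free resin; KD assuming 1:1 binding.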
# CaM [7] = molecular target: T4, CaM; experiment: Pull-down assay with immobilized protein and LSM libraries; type: binding, bovine; settings: H14 library; 1:2 stoichiometry assumed; read-out: Surface mapping KD (apparent)
# In short: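 His-tagged protein immobilized on Co-NTA resin, equilibrated 30 min at room temperature with LSM sublibraries (64 members, […]), equimolar protein to total probe. CaM buffer: 20 mM HEPES pH 7.4, 150 mM NaCl, 5 mM CaCl2. Bound fractions from HPLC-MS loss of unbound probe versus protein-free resin control; Kd derived.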
# Gal-1 [8] = molecular target: T5, Gal-1; experiment: as above; type: binding; settings: H14 library; 1:1 binding assumed; read-out: Surface mapping KD (apparent)
# In short: as §1
# S100B [9] = molecular target: T2, S100B; experiment: as above; type: binding; settings: for pKd: H14 library, 1:1 binding assumed, read-out: Surface mapping KD (apparent)
# In short: (§2)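 Buffers were HEPES pH 7.4 with 150 mM NaCl, plus 1 mM TCEP and 1 mM CaCl2 (50 mM HEPES) for S100A4 and S100B, 1 mM TCEP for Gal-1, and no additive for RecQ-WH. Immobilized protein at 64 µM was equilibrated 30 min with the LSM sublibrary, and unbound probes were measured by LC-MS.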
# S100A4 [10] = molecular target: T1, S100A4; experiment: as above; type: binding; settings: for pKd: H14 library, 1:1 binding assumed, read-out: Surface mapping KD (apparent)
# In short: as §2
# [11] = H14 probes selected for validation
Structure (SMILES),pKd (S100A4 [1]),pKd (S100B [2]),pKd (RecQ-WH [3]),pKd (RecQ-WH [4]),pKd (CaM [5]),pKd (Gal-1 [6]),pKd (CaM [7]),pKd (Gal-1 [8]),pKd (S100B [9]),pKd (S100A4 [10]),"Affinity class of probe (high, medium, low) in pull-down (S100B [9]; [11])","Affinity class of probe (high, medium, low) in pull-down (S100A4 [10]; [11])"
NC(=O)[C@H]1CCCC[C@@H]1NC(=O)C[C@H](Cc1c[nH]c2ccccc12)NC(=O)[C@H]1CCCC[C@@H]1NC(=O)[C@H]1CCCC[C@@H]1NC(=O)C[C@H](Cc1ccccc1)NC(=O)[C@H]1CCCC[C@@H]1N [H14 FW],3.36,3.75,3.82,4.20,3.93,3.91,6.15,4.09,4.57,4.62,–,–
CSCC[C@@H](CC(=O)N[C@H]1CCCC[C@@H]1C(=O)N[C@H]1CCCC[C@@H]1C(=O)N[C@H](CC(=O)N[C@H]1CCCC[C@@H]1C(N)=O)CC(C)C)NC(=O)[C@H]1CCCC[C@@H]1N [H14 ML],3.35,3.57,–,3.65,3.36,3.63,5.52,3.84,4.21,4.96,–,–
CC(C)C[C@@H](CC(=O)N[C@H]1CCCC[C@@H]1C(N)=O)NC(=O)[C@H]1CCCC[C@@H]1NC(=O)[C@H]1CCCC[C@@H]1NC(=O)C[C@H](CC(C)C)NC(=O)[C@H]1CCCC[C@@H]1N [H14 LL],3.93,3.83,3.60,3.69,3.56,4.49,4.80,4.77,4.55,6.00,–,–
CC[C@H](C)[C@@H](CC(=O)N[C@H]1CCCC[C@@H]1C(N)=O)NC(=O)[C@H]1CCCC[C@@H]1NC(=O)[C@H]1CCCC[C@@H]1NC(=O)C[C@H](CC(C)C)NC(=O)[C@H]1CCCC[C@@H]1N [H14 LI],4.00,3.83,3.45,3.80,3.55,4.30,4.80,4.62,4.72,5.70,–,–
CC[C@H](C)[C@@H](CC(=O)N[C@H]1CCCC[C@@H]1C(N)=O)NC(=O)[C@H]1CCCC[C@@H]1NC(=O)[C@H]1CCCC[C@@H]1NC(=O)C[C@H](CCSC)NC(=O)[C@H]1CCCC[C@@H]1N [H14 MI],3.35,3.57,–,3.65,3.36,3.63,5.52,3.84,4.21,4.96,–,–
CC(C)C[C@@H](CC(=O)N[C@H]1CCCC[C@@H]1C(N)=O)NC(=O)[C@H]1CCCC[C@@H]1NC(=O)[C@H]1CCCC[C@@H]1NC(=O)C[C@H](Cc1c[nH]c2ccccc12)NC(=O)[C@H]1CCCC[C@@H]1N [H14 WL],3.59,3.91,3.85,4.17,4.26,3.98,6.00,4.15,4.92,5.00,high,high
NC(=O)[C@H]1CCCC[C@@H]1NC(=O)C[C@H](Cc1ccc(O)cc1)NC(=O)[C@H]1CCCC[C@@H]1NC(=O)[C@H]1CCCC[C@@H]1NC(=O)C[C@H](Cc1c[nH]c2ccccc12)NC(=O)[C@H]1CCCC[C@@H]1N [H14 WY],3.44,3.98,3.71,4.30,3.92,3.65,5.70,3.84,4.18,4.46,–,–
CC(C)[C@@H](CC(=O)N[C@H]1CCCC[C@@H]1C(=O)N[C@H]1CCCC[C@@H]1C(=O)N[C@H](CC(=O)N[C@H]1CCCC[C@@H]1C(N)=O)Cc1ccccc1)NC(=O)[C@H]1CCCC[C@@H]1N [H14 VF],3.32,4.04,–,3.46,3.62,3.71,5.30,4.03,4.70,5.52,–,–
